Experimental findings from patent US20110230430A1, “SAPONIN EXTRACT FROM SAPONARIA SPP. AND USES THEREOF” (NATIONAL RESEARCH COUNCIL OF CANADA, priority 2008, published 2011) are described below.

The subject of series [1] is MDA-MB-231 cells. Kind of series: Dual Sensor: MitoCasp Assay in MDA-MB-231 breast cancer cells. The class given is cell-based, human. The source says:
Techniques to assay enzymatic and signaling processes involved in apoptosis have been developed as standard protocols. One example of an early step in apoptosis, is the release of cytochrome C from mitochondria and the activation of caspase-3. Induction of the caspases (a series of cytosolic proteases) is one of the most consistently observed features of apoptosis. Caspases are a family of proteolytic enzymes that transmit the apoptotic signal using a proteolytic cascade. […] Caspases 3 and 7 are effector caspases, central to the caspase cascade pathways. In particular, caspase-3 plays a central role in the process. When caspases are activated, they cleave target proteins; one of the most important of these is poly-(ADP-ribose) polymerase (PARP), which is a protein located in the nucleus. Therefore, assays detecting release of cytochrome C, detecting caspase-3 activity and detecting PARP degradation are effective determinants of apoptosis. The loss of mitochondrial membrane potential is known to occur during apoptosis. To analyze mitochondrial membrane potential, a cationic dye may be used which accumulates in the mitochondria of healthy cells. Collapse of the mitochondrial membrane potential during apoptosis prevents the dye from accumulating in the mitochondria resulting in a decrease in fluorescent intensity that can be detected with flow cytometry. Dual Sensor: MitoCasp™ (Cell Technology) used herein in the Examples is an assay that measures caspase 3/7 activity and cells with decreased mitochondrial membrane potential. In this assay, caspase 3/7 activity is detected using a cell permeable carboxyfluorescein labeled caspase inhibitor, which binds covalently to active caspases 3 and 7. Cells that contain bound inhibitor are detected by an increase in fluorescence when samples are analyzed by flow cytometry.
Following centrifugation at 500×g for 5 min, cell pellets were resuspended in PBS at 3.3×10^6 cells/mL. 300 μL cell suspension was mixed with 10 μL each of 30X Mitochondria Membrane Potential Dye and 30X Caspase 3/7 detection reagent. Following incubation for 60 min under normal growth conditions, cells were washed twice with 1× wash buffer and resuspended in 0.5 mL 1× wash buffer. Samples were analyzed by flow cytometry measuring the fluorescence emissions from 515 nm to 530 nm for caspase detection, and 574 nm to 600 nm for mitochondrial membrane potential detection.
The MDA-MB-231 cell line (ATCC #HTB-26) was derived from the pleural effusion of a patient with a breast adenocarcinoma (Cailleau et al., 1974). The cells were maintained in RPMI 1640 (Gibco) supplemented with 10% fetal bovine serum (Camera), 100 U/mL penicillin, 100 μg/mL streptomycin and 0.25 μg/mL amphotericin B. Cultures were maintained in medium at 37° C. with 5% CO2 and 100% relative humidity. […]

The test system of series [2] is PC-3, MDA-MB-231, WiDr, and HT-29 Cells. Kind of series: Order of apoptosis potency across cancer cell lines. The conditions noted are these: rank based on responses observed in PC-3, MDA-MB-231, WiDr, and HT-29 Cells; 1 = most active. Also noted: species or system human.
Series [3] is described as follows: Haemolytic properties of selected saponins. The conditions noted are these: saponins purified to more than 75%. The source says:
The haemolytic properties of the various saponins that have been purified to more than 75% have been examined and are provided in Table 39. Haemolytic properties are not directly related to anti-cancer or apoptosis inducing properties of saponins but may be related to toxicity and utility of the saponins for preparation of injectable formulations. Saponins most suitable for injectable formulation will be less haemolytic. QS21, a purified Quillaja saponaria saponin with known haemolytic activity is used as reference.

For series [4], the system named is CRL-2522 cells. Kind of series: Vybrant Apoptosis Assay Kit #2 in CRL-2522 cells. The class given is cell-based, human. The text has this:
Another apoptotic assay is the Annexin-V detection of extracellular phosphatidlyserine (PS). Normally, phosphatidylserine is localized on the inner membrane of the plasmalemma. However, during the early stages of apoptosis, externalization of PS takes place. Annexin-V is a calcium binding protein which binds to PS and can be observed with annexin-V-FITC staining by flow cytometry (Martin, et al., 1995). Alexa Fluor® 488-labeled Annexin V, which has a high affinity for PS, is used to detect apoptotic cells by binding to PS on the outer surface of the cell. Propidium iodide staining is used concurrently to detect dead cells. When cells are analyzed by flow cytometry apoptotic cells show Annexin V staining, late apoptotic cells show PI and Annexin V staining, and dead cells show only PI staining. The Vybrant® Apoptosis Assay Kit #2 (Molecular Probes™) used herein in the Examples is an assay that measures Annexin-V positive cells.
CRL-2522 cells, acquired from ATCC, (American Type Culture Collection) are normal fibroblast cells that originated from human foreskin. CRL-2522 cells were maintained in RPMI 1640 medium (Gibco) supplemented with 10% fetal bovine serum (Cansera), 100 U/mL penicillin, 100 μg/mL streptomycin and 0.25 μg/mL amphotericin B. Cultures were maintained in medium at 37° C. with 5% CO2 and 100% relative humidity.
CRL-2522 cells were treated with PC1448 and assayed for apoptosis as described above for PC-3 cells.

[5] abbreviates: 5.0 μM saponin, 36 hours (comparison of saponins).

As for Segetoside H [PC1448], the “Cells with caspase 3/7 activity” value turned out to be 19.3% in series [1] (2.5 μM PC1448, 36 hr); 25.8% in series [1] (5.0 μM PC1448, 36 hr); 12.8% in series [1] (setting [5]); 40.0% in series [1] (10.0 μM PC1448, 36 hr); 40.9% in series [1] (15.0 μM PC1448, 36 hr). For the same substance, the “Cells with decreased mitochondrial membrane potential” value amounted to 9.9% in series [1] (2.5 μM PC1448, 36 hr); 12.6% in series [1] (5.0 μM PC1448, 36 hr); 5.3% in series [1] (setting [5]); 17.9% in series [1] (10.0 μM PC1448, 36 hr); 20.8% in series [1] (15.0 μM PC1448, 36 hr). In addition, the “Concentration of greatest effect on apoptosis” value in series [1] (36 hours) is listed as “above 10 μM”. Further, in series [1] (36 hours), the “Induction of apoptosis at concentrations as low as” value was found to be 5.0 µM. The “Order of Apoptosis Potency” value in series [2] was found to be 7. This substance yielded an HD50 in series [3] of 13.8 µM. Moreover, the “Change in number of cells showing Annexin V staining (in words)” value in series [4] (14 μM PC1448, 10-40 hr) is “No meaningful changes”. For the same substance, the Annexin-V positive cells was determined as 17.2% in series [4] (14 μM PC1448, 10 hr); 9.3% in series [4] (14 μM PC1448, 20 hr); 18.2% in series [4] (14 μM PC1448, 40 hr).
In the case of Segetoside I [PC1464], the “Cells with caspase 3/7 activity” value in series [1] (1.25 μM PC1464, 35 hr) came to 16.7%; in series [1] (2.5 μM PC1464, 35 hr) it was 32.4%; in series [1] (3.5 μM PC1464, 12 hr) it was 20.0%; in series [1] (3.5 μM PC1464, 24 hr) it was 27.5%; in series [1] (3.5 μM PC1464, 36 hr), 29.1%; in series [1] (5.0 μM PC1464, 35 hr), 53.0%. The “Cells with caspase 3/7 activity” value in series [1] (setting [5]) is 39.9%; in series [1] (10.0 μM PC1464, 35 hr), 55.7%. The “Cells with decreased mitochondrial membrane potential” value in series [1] (1.25 μM PC1464, 35 hr) stood at 15.6%; in series [1] (2.5 μM PC1464, 35 hr) it was 21.2%; in series [1] (3.5 μM PC1464, 12 hr) it was 19.9%; in series [1] (3.5 μM PC1464, 24 hr), 51.5%; in series [1] (3.5 μM PC1464, 36 hr), 52.0%; in series [1] (5.0 μM PC1464, 35 hr), 32.8%. Further, the “Cells with decreased mitochondrial membrane potential” value in series [1] (setting [5]) stood at 13.7%; in series [1] (10.0 μM PC1464, 35 hr) it was 39.6%. The “Increase in number of cells with caspase 3/7 activity” value in series [1] (3.5 μM PC1464, 36 hours) is “two fold”. In series [1] (3.5 μM PC1464, 36 hours), the “Increase in number of cells with reduced mitochondrial membrane potential” value is “eight fold”. In addition, the “Concentration of greatest effect on apoptosis” value in series [1] (35 hours) was “above 5 μM”. In addition, the “Induction of apoptosis at concentrations as low as” value in series [1] (35 hours) was 2.5 µM. The “Order of Apoptosis Potency” value in series [2] came to 4. Moreover, the HD50 in series [3] came out at 17.5 µM. The “Effect on Annexin V positive cells (in words)” value in series [4] (7 μM PC1464, 10-30 hr) is “little effect”. In addition, the Annexin-V positive cells in series [4] (7 μM PC1464, 10 hr) was 6.0%; in series [4] (7 μM PC1464, 20 hr), 8.4%; in series [4] (7 μM PC1464, 30 hr), 10.2%.
